Values after ≈ are worked out from the molar mass of the structure shown. Values joined by “and” are separate entries in the source; they are usually repeats but may differ in a detail not shown here. Identical values can stand only once. “Also recorded” adds a separate entry of the source.
Columns and labels:
M5076 sarcoma = experiment: In vivo antitumor test, M5076 sarcoma in mice
Rift Valley Fever virus = conditions: USAMRIID, Fort Detrick
[1] = system: Cytomegalovirus, strain AD 169; experiment: Cytomegalovirus (CMV) Yield Reduction Assay; type: cell-based
[2] = system: Influenza (Hong Kong), strain A2 /Aichi/2/68; experiment: microbe, parasite or virus in culture; type: cell-based, Influenza virus; host MDCK (Madin Darby canine kidney cells)
[3] = system: Herpes simplex type 1 (TK+), strain E-377; experiment: Cytopathogenic inhibition test, HSV-1 TK+; type: cell-based
[4] = system: Vesicular Stomatitis virus, strain Indiana; type: cell-based
P388 leukemia = experiment: In vivo antitumor test, P388 leukemia in mice
L1210/ara-C Leukemia = experiment: In vivo antitumor test, ara-C resistant L1210 leukemia in mice; conditions: for Number of 60 day survivors per test group / % ILS: Table IV; for Number of 60 day survivors per test group: QD1-9; for % ILS: QD1-9, terminated day 60; for activity against ara-C resistant tumor: result in words
[5] = system: Herpes simplex type 2, strain MS; experiment: Cytopathogenic inhibition test, HSV-2; type: cell-based
[6] = system: vaccinia virus (IHD strain); type: in vivo, mouse (CD-I)
LOX Melanoma = experiment: Human tumor xenograft in athymic mice, LOX melanoma (intraperitoneal)
[7] = system: Punta Toro virus, strain Adames; experiment: microbe, parasite or virus in culture; type: cell-based, Punta Toro virus; host Vero cells
[8] = system: Vaccinia, strain Lederle CA; experiment: microbe, parasite or virus in culture; type: cell-based
[9] = system: MRC5 (diploid human embryonic lung cells); experiment: Toxicity to MRC5 host cells (gross cell morphology) in the CMV assay
[10] = system: Herpes simplex type 1 (TK-), strain HF; experiment: microbe, parasite or virus in culture; type: cell-based
[11] = system: P388/ara-C (Arabinosyl cytosine resistant P388 leukemia); experiment: In vivo antitumor test, ara-C resistant P388 leukemia in mice; conditions: for activity against ara-C resistant P388: result in words
CTP synthesase = experiment: Inhibition of CTP synthesis (CTP synthesase); type: biochemical; conditions: result in words
MX-1 Mammary = experiment: Human tumor xenograft in athymic mice, MX-1 mammary (subrenal capsule); conditions: for % Tumor Inhibition: day 0 to 11; for % tumor weight inhibition: Table IV, QD1-9, day 0 to day 11
[12] = system: HL-60 DNA synthesis / RNA synthesis; experiment: Inhibition of nucleic acid (DNA, RNA) synthesis in HL-60 cells; type: cell-based, human
tumors = experiment: Antitumor activity (general statement); conditions: general statement
[13] = system: Janapese Encephalitis virus, strain Najayama; experiment: Antiviral test in vitro, Japanese encephalitis virus; type: cell-based, Japanese encephalitis virus; host Vero cells
CTP pools = experiment: Nucleotide (CTP, UTP, ATP, GTP) levels in treated cells (HL-60); type: cell-based, human
[14] = system: Huf (human diploid foreskin cells); experiment: Toxicity to Huf host cells (gross cell morphology) in the VZV assay; type: cell-based
[15] = Table II Experiment 1, tumor IP, IP QD1-13, OD 0.5 mg/kg/injection
[16] = Table II Experiment 1, tumor IP, IP QD1-9, OD 1.0 mg/kg/injection
[17] = Table II Experiment 2, tumor IP, IP QD1-9, OD 1.5 mg/kg/injection
[18] = listed as cyclopentenyl cytosine
[19] = minimum toxic drug concentration / ID50, Vero cells
[20] = Table II Experiment 1, tumor IP, IP QD1-9, OD 1.5 mg/kg/injection

Nc1ccn([C@@H]2C=C(CO)[C@@H](O)[C@H]2O)c(=O)n1 [CPE-C]
% ILS (M5076 sarcoma; [15]): 5%
LCK (M5076 sarcoma; [15]): -2.0 log
activity (M5076 sarcoma; result in words): inactive
antiviral activity (Rift Valley Fever virus): particularly active
log reduction at 0.1 µg/mL ([1]; Human betaherpesvirus 5, 144 h, 0.1 μg/ml, MRC5 cells, read-out: Reduction in Virus Yield): 0.8
log reduction at 0.32 µg/mL ([1]; Human betaherpesvirus 5, 144 h, 0.32 μg/ml, MRC5 cells, read-out: Reduction in Virus Yield): 1.3
log reduction at 1 µg/mL ([1]; Human betaherpesvirus 5, 144 h, 1.0 μg/ml, MRC5 cells, read-out: Reduction in Virus Yield): 1.4
log reduction at 3.2 µg/mL ([1]; Human betaherpesvirus 5, 144 h, 3.2 μg/ml, MRC5 cells, read-out: Reduction in Virus Yield): 1.5
log reduction at 10 µg/mL ([1]; Human betaherpesvirus 5, 144 h, 10 μg/ml, MRC5 cells, read-out: Reduction in Virus Yield): 1.9
log reduction at 32 µg/mL ([1]; Human betaherpesvirus 5, 144 h, 32 μg/ml, MRC5 cells, read-out: Reduction in Virus Yield): 2
log reduction at 100 µg/mL ([1]; Human betaherpesvirus 5, 144 h, 100 μg/ml, MRC5 cells, read-out: Reduction in Virus Yield): 2
log reduction at 320 µg/mL ([1]; Human betaherpesvirus 5, 144 h, 320 μg/ml, MRC5 cells, read-out: Reduction in Virus Yield): 5.3
antiviral activity ([1]; result in words): Potent activity; also recorded: Activity was observed for both compounds
VR (virus rating) [2]: 2.4
antiviral activity [2]: Good activity; also recorded: Virus ratings greater than two
IC50 ([2]; MDCK, in Canis lupus familiaris, read-out: ID50): 18.2 µg/mL (≈ 76.1 µM)
IC50 ([3]; Human alphaherpesvirus 1, Vero cells, strain E-377, inhibition of virus-induced cytopathogenic effects, read-out: ID50 (the source's name)): 0.3 µg/mL (≈ 1.25 µM)
VR (virus rating) ([3]; Vero cells, strain E-377): 3.8
antiviral activity ([3]; result in words): greater than arabinosyl adenine (ara-A); also recorded: Potent activity
VR (virus rating) ([4]; L929 cells, strain Indiana, two determinations): 2.4 and 3.0
TI (therapeutic index) ([4]; minimum toxic drug concentration / ID50, L929 cells): 0.6 and 0.4
antiviral activity ([4]; result in words): Good activity; also recorded: Virus ratings greater than two
% ILS (P388 leukemia; [16]): 88%
LCK (P388 leukemia; [16]): 0.9 log
% ILS (P388 leukemia; [17]): 69%
LCK (P388 leukemia; [17]): 0.1 log
activity (P388 leukemia; result in words): only modest activity
Number of 60 day survivors per test group (L1210/ara-C Leukemia; CPE-C 1.0 mg/kg): 6/10
% ILS (L1210/ara-C Leukemia; CPE-C 1.0 mg/kg): > 650%
Number of 60 day survivors per test group (L1210/ara-C Leukemia; CPE-C 1.5 mg/kg): 5/9
% ILS (L1210/ara-C Leukemia; CPE-C 1.5 mg/kg): > 650%
Number of 60 day survivors per test group (L1210/ara-C Leukemia; CPE-C 2.25 mg/kg): 6/10
% ILS (L1210/ara-C Leukemia; CPE-C 2.25 mg/kg): > 650%
activity against ara-C resistant tumor (L1210/ara-C Leukemia): producing multiple cures against the resistant tumor; also recorded: collaterally sensitive
activity against ara-C resistant tumor (L1210/ara-C Leukemia; [18]): significant antitumor activity
IC50 ([5]; Human alphaherpesvirus 2, Vero cells, strain MS, inhibition of virus-induced cytopathogenic effects, read-out: ID50 (the source's name)): 2.7 µg/mL (≈ 11.3 µM)
VR (virus rating) ([5]; Vero cells, strain MS): 2.3
antiviral activity ([5]; result in words): Potent activity
activity in vivo, mouse tail pox model ([6]; 1.5 mg/kg): good protection; also recorded: Excellent activity
Pox Count (mean value, 20 mice) ([6]; CPE-C 1.5 mg/kg, QD 1-7 subcutaneous, PBS control 45.8): 0.8
tumor cell kill (LOX Melanoma; 2.25 mg/kg, QD 1-9): two-log tumor cell kill
potency relative to 3DU (LOX Melanoma; LOX xenograft): about 100 times
% ILS (LOX Melanoma; Table III Experiment 1, tumor IP, IP QD1-9, OD 1.0 mg/kg/injection): 119%
% ILS (LOX Melanoma; Table III Experiment 2, tumor IP, IP QD1-9, OD 2.25 mg/kg/injection): 80%
% ILS (LOX Melanoma; Table IV, CPE-C 1.5 mg/kg, QD1-9): 58%
% ILS (LOX Melanoma; Table IV, CPE-C 2.25 mg/kg, QD1-9): 80%
difference in tumor burden between CPE-C and 3DU (LOX Melanoma; in vivo): five-log difference in tumor burden
increase in life span (LOX Melanoma; intraperitoneally implanted): about 100%
activity (LOX Melanoma; result in words): Good activity
VR (virus rating) [7]: 1.5
IC50 ([7]; Punta Toro virus, Vero, read-out: ID50): 1.01 µg/mL (≈ 4.22 µM)
TI (therapeutic index) [7, 19]: 0.3
antiviral activity ([7]; result in words): Good activity; also recorded: Virus ratings greater than two
potency relative to ara-A [8]: about 100 times
IC50 ([8]; Orthopoxvirus vaccinia, Vero, in Chlorocebus sabaeus, read-out: ID50): 0.1 µg/mL (≈ 0.418 µM)
VR (virus rating) ([8]; Vero cells, strain Lederle CA): 4.6
antiviral activity ([8]; result in words): very sensitive to CPE-C; also recorded: Potent activity
Host cell toxicity (gross cell morphology) ([9]; 320 μg/ml): Slightly toxic
Host cell toxicity (gross cell morphology) ([9]; each of 100, 32, 10, 3.2 and 1.0 μg/ml): Very slightly toxic
VR (virus rating) ([10]; Vero cells, strain HF, two determinations): 3.8 and 2.7
antiviral activity ([10]; result in words): greater than arabinosyl adenine (ara-A); also recorded: Potent activity
% ILS [11, 20]: 165%
LCK [11, 20]: > 6.5 log
Number of 30 day survivors out of six mice [11, 20]: 3
% ILS [11, 17]: 133%
LCK [11, 17]: 3.8 log
activity against ara-C resistant P388 [11]: collaterally sensitive
activity against ara-C resistant P388 [11, 18]: significant antitumor activity
inhibition of CTP synthesis (CTP synthesase): powerful inhibitors of CTP synthesis
growth inhibition (MX-1 Mammary): 100%
potency relative to 3DU (MX-1 Mammary; MX-1 xenograft): about 100 times
% Tumor Inhibition (MX-1 Mammary; Table III Experiment 1, SRC, IP QD1-9, OD 1.5 mg/kg/injection): 100%
% Tumor Inhibition (MX-1 Mammary; Table III Experiment 2, SRC, IP QD1-9, OD 2.25 mg/kg/injection): 95%
% tumor weight inhibition (MX-1 Mammary; CPE-C 1.5 mg/kg): 94%
% tumor weight inhibition (MX-1 Mammary; CPE-C 2.25 mg/kg): 100%
activity (MX-1 Mammary; result in words): complete inhibition of tumor growth
RNA synthesis ([12]; 10^-7 M): inhibited to a lesser extent
DNA synthesis, % of control levels ([12]; 24 hrs. after exposure to 10^-7 M): 10%
activity against ara-C resistant tumors and human tumors grown in mice (tumors): particularly potent and active agents
IC50 ([13]; Japanese encephalitis virus, Vero, read-out: ID50): 0.1 µg/mL (≈ 0.418 µM)
VR (virus rating) ([13]; Vero cells, strain Najayama): 2.4
TI (therapeutic index) [13, 19]: 3.1
antiviral activity ([13]; result in words): Good activity; also recorded: greater potency and higher therapeutic index than Ribavarin
CTP levels following drug removal (CTP pools; HL-60): sustained reduction in CTP levels
level of CTP (CTP pools; during CPE-C treatment): rapid and pronounced inhibition
half-life for the disappearance of CTP (CTP pools; during CPE-C treatment, HL-60): 1.5 to 2 h
level of UTP, ATP or GTP (CTP pools; during CPE-C treatment, HL-60): not of UTP, ATP or GTP
level of CTP pools (CTP pools; treated cells): near total abrogation of CTP pools
Host cell toxicity (gross cell morphology) ([14]; 320 μg/ml): Slightly toxic
Host cell toxicity (gross cell morphology) ([14]; 100 and 32 μg/ml): Very slightly toxic
